In patent US20210087206A1, “MACROCYCLIC KINASE INHIBITORS AND THEIR USE” (TURNING POINT THERAPEUTICS, INC., priority 2017, published 2021) one finds IC50 data, which are given here for 1 molecule.

Broadly, the IC50 is the concentration at which inhibition is half-maximal.

One test addresses T1, BaF3 EML4-ALK (Homo sapiens, UniProt Q9UM73).
T1 construct: The EML4-ALK gene (variant 1) was synthesized at GenScript and cloned into pCDH-CMV-MCS-EF1-Puro plasmid (System Biosciences, Inc); fused on or other part: EML4 N-terminal part (variant 1: exons 1-13, with the coiled-coil that oligomerises the fusion) fused to the intracellular part of ALK, which contains the kinase domain; Q9HC35 (Echinoderm microtubule-associated protein-like 4)
Nature of the test: Cell proliferation assay (CellTiter-Glo). Type of test: cell-based. To be noted: anti-cell proliferation, 72 hours. An outline of the steps: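 Ba/F3 cells were lentivirally transduced with EML4-ALK variant 1 and selected for puromycin resistance and IL-3-independent growth. Proliferation was measured by CellTiter-Glo ATP luminescence to give IC50.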
In general terms: Cellular ATP, detected with luciferase, serves as a proxy for viable cell number.

Another test concerns KM12 (TPM3-TRKA). The test is described as follows: Cell proliferation assay (CellTiter-Glo). Type of test: cell-based. As to conditions: Homo sapiens, anti-cell proliferation, 72 hours. An outline of the steps:
(§1)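 Cells seeded 24 h, then exposed to compounds for 72 h at 37° C., 5% CO2. Proliferation read by CellTiter-Glo luminescent ATP detection; IC50 from dose-response fits.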

Another test concerns KG-1 cell (OP2-FGFR1). Nature of the test: Cell proliferation assay (CellTiter-Glo). It is filed as cell-based. As to conditions: Homo sapiens, anti-cell proliferation, 72 hours. An outline of the steps: as §1
In another test the target is T2, ALK (L1196M) (Homo sapiens, UniProt Q9UM73, L1196M).
T2 construct: purchased Reaction Biology Corporation
Nature of the test: Biochemical kinase assay (Reaction Biology, 33P ATP). As to conditions: 10 μM ATP. On the procedure:
(§2) Biochemical Kinase Assay Method
(§3) The biochemical kinase assay was performed at Reaction Biology Corporation (www.reactionbiology.com, Malvern, Pa.) following the procedures described in the reference (Anastassiadis T, et al Nat Biotechnol. 2011, 29, 1039). Specific kinase/substrate pairs along with required cofactors were prepared in reaction buffer; 20 mM Hepes pH 7.5, 10 mM MgC2, 1 mM EGTA, 0.02% Brij35, 0.02 mg/ml BSA, 0.1 mM Na3VO4, 2 mM DTT, 1% DMSO. Compounds were delivered into the reaction, followed ˜20 min later by addition of a mixture of ATP (Sigma, St. Louis Mo.) and ^33P ATP (Perkin Elmer, Waltham Mass.) to a final concentration of 10 μM. Reactions were carried out at room temperature for 120 min, followed by spotting of the reactions onto P81 ion exchange filter paper (Whatman Inc., Piscataway, N.J.). Unbound phosphate was removed by extensive washing of filters in 0.75% phosphoric acid. […] IC50 values and curve fits were obtained using Prism (GraphPad Software).

The target of a further test is T3, FGFR4 (Homo sapiens, UniProt P22455).
T3 construct: purchased Reaction Biology Corporation
The description is as above. To be noted: 10 μM ATP. On the procedure: as §2, §3

A further test addresses T4, ROS1 (Homo sapiens, UniProt P08922).
T4 construct: purchased Reaction Biology Corporation
The description is as above. As to conditions: 10 μM ATP. The protocol:
as §2, §3

The next test deals with T5, ALK (Homo sapiens, UniProt Q9UM73).
T5 construct: purchased Reaction Biology Corporation
The test is described as above. To be noted: 10 μM ATP. On the procedure: as §2, §3

For the next test, the target named is T6, ROS1 (G2032R) (Homo sapiens, UniProt P08922, G2032R).
T6 construct: purchased Reaction Biology Corporation
Described as above. As to conditions: 10 μM ATP. On the procedure: as §2, §3

For another test, the target named is T7, FGFR1 (Homo sapiens, UniProt P11362).
T7 construct: purchased Reaction Biology Corporation
The test is described as above. To be noted: 10 μM ATP. The protocol: as §2, §3

For another test, the target named is T8, FGFR2 (Homo sapiens, UniProt P21802).
T8 construct: purchased Reaction Biology Corporation
The test is described as above. To be noted: 10 μM ATP. On the procedure: as §2, §3

A further test deals with T9, ALK (G1202R) (Homo sapiens, UniProt Q9UM73, G1202R).
T9 construct: purchased Reaction Biology Corporation
The description is as above. To be noted: 10 μM ATP. On the procedure:
as §2, §3

In a further test the target is T10, FGFR3 (Homo sapiens, UniProt P22607).
T10 construct: purchased Reaction Biology Corporation
Described as above. To be noted: 10 μM ATP. The protocol:
as §2, §3

For a further test, the target named is T11, FGFR1(V561M) (Homo sapiens, UniProt P11362, V561M).
T11 construct: purchased Reaction Biology Corporation
The test is described as above. As to conditions: 10 μM ATP. The protocol:
as §2, §3

T2 sequence (Q9UM73 19-1620 L1196M): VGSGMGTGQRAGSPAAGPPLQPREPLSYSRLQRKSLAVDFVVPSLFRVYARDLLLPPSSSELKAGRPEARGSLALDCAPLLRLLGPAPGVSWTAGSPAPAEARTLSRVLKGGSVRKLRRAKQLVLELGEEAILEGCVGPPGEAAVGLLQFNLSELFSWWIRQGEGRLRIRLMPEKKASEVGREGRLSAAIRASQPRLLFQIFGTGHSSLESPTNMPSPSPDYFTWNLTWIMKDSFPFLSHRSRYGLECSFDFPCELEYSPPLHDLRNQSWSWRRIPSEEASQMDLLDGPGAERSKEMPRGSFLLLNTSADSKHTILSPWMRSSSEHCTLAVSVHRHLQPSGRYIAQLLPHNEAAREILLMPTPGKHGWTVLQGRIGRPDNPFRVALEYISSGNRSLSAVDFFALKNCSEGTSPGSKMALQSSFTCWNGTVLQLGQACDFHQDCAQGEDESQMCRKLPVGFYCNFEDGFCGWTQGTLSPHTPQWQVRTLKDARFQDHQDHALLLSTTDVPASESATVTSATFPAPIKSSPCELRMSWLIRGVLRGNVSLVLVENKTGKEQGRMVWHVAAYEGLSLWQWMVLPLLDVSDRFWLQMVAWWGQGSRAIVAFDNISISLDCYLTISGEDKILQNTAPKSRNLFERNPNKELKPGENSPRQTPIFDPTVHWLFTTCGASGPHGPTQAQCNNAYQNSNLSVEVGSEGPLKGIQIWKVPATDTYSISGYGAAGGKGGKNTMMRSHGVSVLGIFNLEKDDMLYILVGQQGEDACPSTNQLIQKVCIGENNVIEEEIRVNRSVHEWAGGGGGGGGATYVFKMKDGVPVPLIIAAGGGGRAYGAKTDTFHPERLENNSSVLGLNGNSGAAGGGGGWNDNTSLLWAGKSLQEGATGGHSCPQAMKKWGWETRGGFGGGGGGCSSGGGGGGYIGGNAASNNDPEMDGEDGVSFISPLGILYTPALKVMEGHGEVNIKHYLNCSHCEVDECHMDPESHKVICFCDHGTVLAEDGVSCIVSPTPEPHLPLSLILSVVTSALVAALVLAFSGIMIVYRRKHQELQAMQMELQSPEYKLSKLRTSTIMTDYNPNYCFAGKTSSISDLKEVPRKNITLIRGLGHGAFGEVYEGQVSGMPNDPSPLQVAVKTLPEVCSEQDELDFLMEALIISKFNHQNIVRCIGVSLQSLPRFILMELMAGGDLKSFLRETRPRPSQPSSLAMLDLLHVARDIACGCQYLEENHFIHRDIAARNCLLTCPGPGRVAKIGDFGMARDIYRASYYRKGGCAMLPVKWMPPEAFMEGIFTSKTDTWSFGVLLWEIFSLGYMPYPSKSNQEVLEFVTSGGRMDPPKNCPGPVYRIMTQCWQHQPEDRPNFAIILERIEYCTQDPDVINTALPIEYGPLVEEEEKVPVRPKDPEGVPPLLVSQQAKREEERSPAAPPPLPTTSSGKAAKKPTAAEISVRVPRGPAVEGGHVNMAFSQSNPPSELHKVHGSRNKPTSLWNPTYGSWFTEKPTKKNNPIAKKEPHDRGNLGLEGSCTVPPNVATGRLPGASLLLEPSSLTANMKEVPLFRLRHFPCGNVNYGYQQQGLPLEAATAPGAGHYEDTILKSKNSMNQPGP
T7 sequence (P11362 22-822): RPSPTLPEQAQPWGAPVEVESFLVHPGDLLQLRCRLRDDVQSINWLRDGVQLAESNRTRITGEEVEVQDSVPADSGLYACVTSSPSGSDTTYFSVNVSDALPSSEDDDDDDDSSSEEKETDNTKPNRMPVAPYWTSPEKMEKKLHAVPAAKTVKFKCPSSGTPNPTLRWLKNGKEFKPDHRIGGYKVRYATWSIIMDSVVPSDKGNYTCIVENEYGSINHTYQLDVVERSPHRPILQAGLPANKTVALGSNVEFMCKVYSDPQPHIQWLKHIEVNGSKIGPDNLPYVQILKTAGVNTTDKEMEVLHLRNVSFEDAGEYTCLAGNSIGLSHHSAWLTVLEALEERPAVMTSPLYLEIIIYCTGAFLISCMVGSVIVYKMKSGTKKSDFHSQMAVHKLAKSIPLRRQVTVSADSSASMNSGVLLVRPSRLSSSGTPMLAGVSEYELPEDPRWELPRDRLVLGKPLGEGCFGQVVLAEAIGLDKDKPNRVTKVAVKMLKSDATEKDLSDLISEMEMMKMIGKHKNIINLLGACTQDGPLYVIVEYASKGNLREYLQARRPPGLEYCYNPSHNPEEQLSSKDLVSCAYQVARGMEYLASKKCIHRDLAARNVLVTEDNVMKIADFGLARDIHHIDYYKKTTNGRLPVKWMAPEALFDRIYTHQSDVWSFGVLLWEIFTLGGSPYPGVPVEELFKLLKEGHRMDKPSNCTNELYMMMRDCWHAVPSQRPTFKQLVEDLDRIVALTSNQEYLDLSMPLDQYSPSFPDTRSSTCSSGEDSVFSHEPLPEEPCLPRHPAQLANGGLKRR
T9 sequence (Q9UM73 19-1620 G1202R): as the sequence (Q9UM73 19-1620 L1196M) above, with M1178L, G1184R counted along it
T3 sequence (P22455 22-802): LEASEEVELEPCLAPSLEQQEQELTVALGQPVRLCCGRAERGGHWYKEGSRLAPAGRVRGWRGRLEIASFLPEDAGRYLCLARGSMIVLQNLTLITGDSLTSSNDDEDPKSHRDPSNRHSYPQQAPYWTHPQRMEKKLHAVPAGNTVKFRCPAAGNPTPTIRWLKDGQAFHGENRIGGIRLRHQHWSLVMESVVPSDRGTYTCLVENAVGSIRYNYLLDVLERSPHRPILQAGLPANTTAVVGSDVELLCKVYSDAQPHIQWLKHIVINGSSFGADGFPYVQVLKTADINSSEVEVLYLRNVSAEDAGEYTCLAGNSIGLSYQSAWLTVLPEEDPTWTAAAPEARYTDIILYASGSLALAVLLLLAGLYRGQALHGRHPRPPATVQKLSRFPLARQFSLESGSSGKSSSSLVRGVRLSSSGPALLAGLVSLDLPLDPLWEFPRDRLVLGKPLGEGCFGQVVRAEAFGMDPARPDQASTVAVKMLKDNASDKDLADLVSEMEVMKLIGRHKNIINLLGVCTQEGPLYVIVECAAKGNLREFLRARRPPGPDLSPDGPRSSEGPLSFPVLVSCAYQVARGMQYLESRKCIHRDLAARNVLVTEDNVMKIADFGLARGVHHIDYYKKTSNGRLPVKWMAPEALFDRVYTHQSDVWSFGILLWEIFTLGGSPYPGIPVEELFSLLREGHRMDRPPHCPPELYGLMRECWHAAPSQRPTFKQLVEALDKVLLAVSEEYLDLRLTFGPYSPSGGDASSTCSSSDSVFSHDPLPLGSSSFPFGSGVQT
T10 sequence (P22607 23-806): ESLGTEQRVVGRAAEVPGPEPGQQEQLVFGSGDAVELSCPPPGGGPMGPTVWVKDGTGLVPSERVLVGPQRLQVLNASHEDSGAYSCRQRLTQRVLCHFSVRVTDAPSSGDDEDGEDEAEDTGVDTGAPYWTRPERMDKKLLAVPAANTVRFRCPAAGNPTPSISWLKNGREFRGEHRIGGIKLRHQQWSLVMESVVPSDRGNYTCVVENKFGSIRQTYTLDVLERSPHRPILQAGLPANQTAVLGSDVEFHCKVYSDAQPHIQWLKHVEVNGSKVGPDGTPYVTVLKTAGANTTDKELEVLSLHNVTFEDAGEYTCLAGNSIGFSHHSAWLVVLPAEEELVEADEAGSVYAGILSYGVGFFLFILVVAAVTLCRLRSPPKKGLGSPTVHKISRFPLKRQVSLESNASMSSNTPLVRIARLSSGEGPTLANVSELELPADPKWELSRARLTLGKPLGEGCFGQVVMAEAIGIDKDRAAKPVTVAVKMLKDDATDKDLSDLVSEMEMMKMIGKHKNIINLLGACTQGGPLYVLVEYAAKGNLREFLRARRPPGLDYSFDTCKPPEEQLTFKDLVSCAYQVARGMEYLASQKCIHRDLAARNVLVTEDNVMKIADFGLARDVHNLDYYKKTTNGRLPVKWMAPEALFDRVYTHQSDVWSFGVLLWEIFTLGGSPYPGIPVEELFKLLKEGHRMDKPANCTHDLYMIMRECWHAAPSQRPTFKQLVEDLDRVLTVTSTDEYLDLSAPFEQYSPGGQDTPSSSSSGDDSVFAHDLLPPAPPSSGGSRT
T5 sequence (Q9UM73 19-1620): as the sequence (Q9UM73 19-1620 L1196M) above, with M1178L counted along it
T8 sequence (P21802 22-821): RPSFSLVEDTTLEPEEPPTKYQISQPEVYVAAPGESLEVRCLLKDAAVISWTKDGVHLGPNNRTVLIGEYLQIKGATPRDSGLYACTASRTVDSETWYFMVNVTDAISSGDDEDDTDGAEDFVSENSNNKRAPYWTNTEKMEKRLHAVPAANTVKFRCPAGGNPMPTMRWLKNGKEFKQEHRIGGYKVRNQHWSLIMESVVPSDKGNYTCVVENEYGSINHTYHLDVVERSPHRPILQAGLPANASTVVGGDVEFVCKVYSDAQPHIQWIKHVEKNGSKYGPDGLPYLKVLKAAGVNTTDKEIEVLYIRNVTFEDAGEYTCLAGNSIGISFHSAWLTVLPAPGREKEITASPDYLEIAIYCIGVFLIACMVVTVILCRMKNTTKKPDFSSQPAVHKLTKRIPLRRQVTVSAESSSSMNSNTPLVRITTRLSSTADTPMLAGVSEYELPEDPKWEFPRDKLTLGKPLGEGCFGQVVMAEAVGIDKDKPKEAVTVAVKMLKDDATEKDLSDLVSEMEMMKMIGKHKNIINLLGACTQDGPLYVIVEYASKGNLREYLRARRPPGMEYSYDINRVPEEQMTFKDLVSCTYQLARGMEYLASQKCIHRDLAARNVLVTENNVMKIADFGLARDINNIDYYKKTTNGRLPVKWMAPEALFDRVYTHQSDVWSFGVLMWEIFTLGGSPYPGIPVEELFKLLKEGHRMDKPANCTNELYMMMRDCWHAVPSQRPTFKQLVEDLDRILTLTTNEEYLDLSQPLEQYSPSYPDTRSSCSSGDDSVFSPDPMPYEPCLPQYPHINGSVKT
T11 sequence (P11362 22-822 V561M): as the sequence (P11362 22-822) above, with V540M counted along it

Regarding `C[C@@H]1COc2cn3ncc4c3nc2N1Cc1cc(F)cc(F)c1O[C@@H](C)CNC4=O` [Compound 7, (4R,12S)-8,10-difluoro-4,12-dimethyl-3,4,13,14-tetrahydro-6H-18,1-(metheno)[1,4]oxazino[3,4-i]pyrazolo[4,3-f][1,4,8,10]benzoxatriazacyclotridecin-15(12H)-one], the IC50 against BaF3 EML4-ALK was determined as 18.6 nM; with KM12 (TPM3-TRKA), 0.2 nM; with KG-1 cell (OP2-FGFR1) it was 145 nM; against ALK (L1196M), 0.358 nM; against FGFR4 it was 88.4 nM; against ROS1, 0.111 nM. The IC50 on ALK came out at 0.853 nM; on ROS1 (G2032R) it was 0.678 nM; against FGFR1, 53 nM; at FGFR2, 14.7 nM; against ALK (G1202R), 1.25 nM; at FGFR3, 30.5 nM. Besides, the IC50 against FGFR1(V561M) came to 137 nM.
